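Method: 48-hour compound exposure of cells in 96-well plates, five concentrations, linear interpolation of endpoints. Definition used: TGI = concentration required for complete inhibition of growth.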
Key:
Test in all cases: NCI anticancer screen, dose series, 48 h
786-0 renal = system: 786-0 renal
A498 renal = system: A498 renal
A549 NSCLC = system: A549 NSCLC
ACHN renal = system: ACHN renal
CAKI-1 renal = system: CAKI-1 renal
CCRF-CEM leukemia = system: CCRF-CEM leukemia
COLO 205 colon = system: COLO 205 colon
DLD-1 colon = system: DLD-1 colon
DMS 114 small cell lung = system: DMS 114 small cell lung
DMS 273 small cell lung = system: DMS 273 small cell lung
EKVX NSCLC = system: EKVX NSCLC
HCC-2998 colon = system: HCC-2998 colon
HCT-116 colon = system: HCT-116 colon
HCT-15 colon = system: HCT-15 colon
HL-60(TB) leukemia = system: HL-60(TB) leukemia
HOP-18 NSCLC = system: HOP-18 NSCLC
HOP-62 NSCLC = system: HOP-62 NSCLC
HT29 colon = system: HT29 colon
IGROV1 ovarian = system: IGROV1 ovarian
K-562 leukemia = system: K-562 leukemia
KM12 colon = system: KM12 colon
KM20L2 colon = system: KM20L2 colon
LXFL 529 NSCLC = system: LXFL 529 NSCLC
M14 melanoma = system: M14 melanoma
M19-MEL melanoma = system: M19-MEL melanoma
MALME-3M melanoma = system: MALME-3M melanoma
MOLT-4 leukemia = system: MOLT-4 leukemia
NCI-H23 lung = system: NCI-H23 lung
NCI-H460 lung = system: NCI-H460 lung
NCI-H522 lung = system: NCI-H522 lung
OVCAR-3 ovarian = system: OVCAR-3 ovarian
OVCAR-4 ovarian = system: OVCAR-4 ovarian
OVCAR-8 ovarian = system: OVCAR-8 ovarian
RPMI-8226 leukemia = system: RPMI-8226 leukemia
RXF 393 renal = system: RXF 393 renal
RXF-631 renal = system: RXF-631 renal
SF-268 CNS = system: SF-268 CNS
SF-295 CNS = system: SF-295 CNS
SF-539 CNS = system: SF-539 CNS
SK-MEL-2 melanoma = system: SK-MEL-2 melanoma
SK-MEL-28 melanoma = system: SK-MEL-28 melanoma
SK-MEL-5 melanoma = system: SK-MEL-5 melanoma
SK-OV-3 ovarian = system: SK-OV-3 ovarian
SN12C renal = system: SN12C renal
SNB-19 CNS = system: SNB-19 CNS
SNB-75 CNS = system: SNB-75 CNS
SW-620 colon = system: SW-620 colon
TK-10 renal = system: TK-10 renal
U251 CNS = system: U251 CNS
UACC-257 melanoma = system: UACC-257 melanoma
UACC-62 melanoma = system: UACC-62 melanoma
UO-31 renal = system: UO-31 renal
XF 498 CNS = system: XF 498 CNS
BT-549 breast = system: BT-549 breast
DU-145 prostate = system: DU-145 prostate
HOP-92 NSCLC = system: HOP-92 NSCLC
HS 578T breast = system: HS 578T breast
LOX IMVI melanoma = system: LOX IMVI melanoma
MCF7 breast = system: MCF7 breast
MDA-MB-231 breast = system: MDA-MB-231 breast
MDA-N = system: MDA-N
NCI-H226 lung = system: NCI-H226 lung
OVCAR-5 ovarian = system: OVCAR-5 ovarian
PC-3 prostate = system: PC-3 prostate
SNB-78 CNS = system: SNB-78 CNS
SR leukemia = system: SR leukemia
T-47D breast = system: T-47D breast

SMILES: CN(C)CCC(CCN(C)C)=NOC(=O)c1ccccc1
- TGI (786-0 renal): > 100 µM
- TGI (A498 renal): > 100 µM
- TGI (A549 NSCLC): > 100 µM
- TGI (ACHN renal): > 100 µM
- TGI (CAKI-1 renal): > 100 µM
- TGI (CCRF-CEM leukemia): > 100 µM
- TGI (COLO 205 colon): > 100 µM
- TGI (DLD-1 colon): > 100 µM
- TGI (DMS 114 small cell lung): > 100 µM
- TGI (DMS 273 small cell lung): > 100 µM
- TGI (EKVX NSCLC): > 100 µM
- TGI (HCC-2998 colon): > 100 µM
- TGI (HCT-116 colon): > 100 µM
- TGI (HCT-15 colon): > 100 µM
- TGI (HL-60(TB) leukemia): > 100 µM
- TGI (HOP-18 NSCLC): > 100 µM
- TGI (HOP-62 NSCLC): > 100 µM
- TGI (HT29 colon): > 100 µM
- TGI (IGROV1 ovarian): > 100 µM
- TGI (K-562 leukemia): > 100 µM
- TGI (KM12 colon): > 100 µM
- TGI (KM20L2 colon): > 100 µM
- TGI (LXFL 529 NSCLC): > 100 µM
- TGI (M14 melanoma): > 100 µM
- TGI (M19-MEL melanoma): > 100 µM
- TGI (MALME-3M melanoma): > 100 µM
- TGI (MOLT-4 leukemia): > 100 µM
- TGI (NCI-H23 lung): > 100 µM
- TGI (NCI-H460 lung): > 100 µM
- TGI (NCI-H522 lung): > 100 µM
- TGI (OVCAR-3 ovarian): > 100 µM
- TGI (OVCAR-4 ovarian): > 100 µM
- TGI (OVCAR-8 ovarian): > 100 µM
- TGI (RPMI-8226 leukemia): > 100 µM
- TGI (RXF 393 renal): > 100 µM
- TGI (RXF-631 renal): > 100 µM
- TGI (SF-268 CNS): > 100 µM
- TGI (SF-295 CNS): > 100 µM
- TGI (SF-539 CNS): > 100 µM
- TGI (SK-MEL-2 melanoma): > 100 µM
- TGI (SK-MEL-28 melanoma): > 100 µM
- TGI (SK-MEL-5 melanoma): > 100 µM
- TGI (SK-OV-3 ovarian): > 100 µM
- TGI (SN12C renal): > 100 µM
- TGI (SNB-19 CNS): > 100 µM
- TGI (SNB-75 CNS): > 100 µM
- TGI (SW-620 colon): > 100 µM
- TGI (TK-10 renal): > 100 µM
- TGI (U251 CNS): > 100 µM
- TGI (UACC-257 melanoma): > 100 µM
- TGI (UACC-62 melanoma): > 100 µM
- TGI (UO-31 renal): > 100 µM
- TGI (XF 498 CNS): > 100 µM

SMILES: Cc1ccc(S(=O)(=O)N2c3ccccc3[C@H]3CCC=C[C@H]32)cc1
- TGI (786-0 renal): > 100 µM
- TGI (A498 renal): 46.2 µM
- TGI (A549 NSCLC): > 100 µM
- TGI (ACHN renal): > 93.3 µM
- TGI (BT-549 breast): > 100 µM
- TGI (CAKI-1 renal): > 100 µM
- TGI (CCRF-CEM leukemia): > 87.2 µM
- TGI (COLO 205 colon): 24.6 µM
- TGI (DLD-1 colon): > 100 µM
- TGI (DMS 114 small cell lung): 15.1 µM
- TGI (DMS 273 small cell lung): 18.9 µM
- TGI (DU-145 prostate): > 100 µM
- TGI (EKVX NSCLC): > 92.6 µM
- TGI (HCC-2998 colon): > 76.5 µM
- TGI (HCT-116 colon): 19.6 µM
- TGI (HCT-15 colon): > 69.1 µM
- TGI (HL-60(TB) leukemia): 28.8 µM
- TGI (HOP-18 NSCLC): > 100 µM
- TGI (HOP-62 NSCLC): 67.4 µM
- TGI (HOP-92 NSCLC): 35.4 µM
- TGI (HS 578T breast): 86.3 µM
- TGI (HT29 colon): 19.2 µM
- TGI (IGROV1 ovarian): > 100 µM
- TGI (K-562 leukemia): > 81.3 µM
- TGI (KM12 colon): 45.7 µM
- TGI (KM20L2 colon): 10.3 µM
- TGI (LOX IMVI melanoma): 56.5 µM
- TGI (LXFL 529 NSCLC): > 93.9 µM
- TGI (M14 melanoma): 43.3 µM
- TGI (M19-MEL melanoma): 37.8 µM
- TGI (MALME-3M melanoma): 39 µM
- TGI (MCF7 breast): > 100 µM
- TGI (MDA-MB-231 breast): > 100 µM
- TGI (MDA-N): > 100 µM
- TGI (MOLT-4 leukemia): > 73.8 µM
- TGI (NCI-H226 lung): 47.3 µM
- TGI (NCI-H23 lung): 52.3 µM
- TGI (NCI-H460 lung): > 64.7 µM
- TGI (NCI-H522 lung): 6.35 µM
- TGI (OVCAR-3 ovarian): 28.4 µM
- TGI (OVCAR-4 ovarian): > 100 µM
- TGI (OVCAR-5 ovarian): > 100 µM
- TGI (OVCAR-8 ovarian): > 88.5 µM
- TGI (PC-3 prostate): > 100 µM
- TGI (RPMI-8226 leukemia): 43 µM
- TGI (RXF 393 renal): 19 µM
- TGI (RXF-631 renal): > 100 µM
- TGI (SF-268 CNS): > 76.1 µM
- TGI (SF-295 CNS): 32.4 µM
- TGI (SF-539 CNS): 34 µM
- TGI (SK-MEL-2 melanoma): 39.2 µM
- TGI (SK-MEL-28 melanoma): > 96.1 µM
- TGI (SK-MEL-5 melanoma): > 97.5 µM
- TGI (SK-OV-3 ovarian): 28.6 µM
- TGI (SN12C renal): > 63.1 µM
- TGI (SNB-19 CNS): > 100 µM
- TGI (SNB-75 CNS): 42.5 µM
- TGI (SNB-78 CNS): > 85.7 µM
- TGI (SR leukemia): 65.2 µM
- TGI (SW-620 colon): 47.7 µM
- TGI (T-47D breast): > 100 µM
- TGI (TK-10 renal): > 100 µM
- TGI (U251 CNS): 27.2 µM
- TGI (UACC-257 melanoma): > 95.4 µM
- TGI (UACC-62 melanoma): 42.3 µM
- TGI (UO-31 renal): 34.9 µM
- TGI (XF 498 CNS): 73.7 µM
